Source: patent US6949516B2, “Dipeptide apoptosis inhibitors and the use thereof” (Cytovia, Inc., priority 1997, dated 2005)
Where a SMILES comes first, the peptide text is derived from it. The star is where a group is joined. Cbz = O=C(OCc1ccccc1)*; CH2F = FC*

How the values were obtained:
[1] = test system: PARP cleavage in Jurkat cells; assay: Effect of Z-VD-fmk on PARP cleavage in antiFas-treated Jurkat cells (Example 24); format: cell-based, human
Procedure: Poly(ADP)ribose polymerase (PARP) was one of the first caspase-3 substrates identified and the cleavage of PARP is still considered to be a near-universal marker for caspase-3 activation and caspase-mediated apoptosis. The ability of an anti-apoptotic compound to block PARP cleavage is therefore a useful indicator of its ability to inhibit apoptosis. The potency of Z-VD-fmk in a PARP cleavage assay was tested using antiFas-treated Jurkat cells. 2×10^6 Jurkat cells were seeded in each well of a 6-well dish and pre-incubated with test compounds for 30 minutes. The cells were then challenged with 500 ng/mL of an agonistic antiFas antibody or PBS for 4 hours. The cells were then harvested, pelleted gently, washed two times with PBS and lysed in RIPA buffer. Aliquots of the lysate were analyzed by SDS-PAGE and the proteins were transferred to PVDF membranes for Western blotting. The primary antibody was a polyclonal antiPARP serum which cross-reacts with both full-length PARP and the caspase-3-generated cleavage product.

HeLa cells = assay: Effect of Z-VD-fmk on TNF-α-induced cell death in HeLa cells (calcein AM, Example 25); format: cell-based; conditions: below 1 μM (data not shown)
Procedure: Tumor necrosis factor alpha (TNF-α) can trigger apoptosis in a number of cell types by initiating the caspase cascade and its apoptosis inducing activity can be inhibited by peptide-based caspase inhibitors. However, high concentrations of the inhibitors (50 μM or greater) is required to have good anti-apoptotic effect. HeLa cells, a cell line commonly employed in TNF-α cell death studies, was used here to determine the anti-apoptotic potency of Z-VD-fmk.
HeLa cells were seeded in 48-well multidishes at a density of 50,000 cells per well 24 hours before treatment. They were then pre-incubated with varying concentrations of Z-VD-fmk for 2 hours and challenged with TNF-α (25 ng/mL) and cycloheximide (CHX; 30 μg/mL). The cultures were incubated for an additional 24 hours and dead cells were removed by two washes with PBS. The density of surviving cells was then measured by incubating each culture for 45 minutes with calcein AM, a profluorescent dye which is taken up by living cells and converted to a fluorescent product. The resulting data were expressed as % control values (control values were cells incubated with cycloheximide but without TNF-α).
Z-VD-fmk provided good cytoprotection at concentrations approaching 100 nM.

In the case of `COC(=O)C[C@H](NC(=O)[C@H](C)NC(=O)[C@@H](NC(=O)OCc1ccccc1)C(C)C)C(=O)CF` [Z-VAD-fmk, reference compound] (Cbz-Val-Ala-Asp(OMe)-CH2F), the “inhibition of PARP cleavage” value ([1]; 500 nM, antiFas-treated Jurkat cells) is reported as “much less effective”, the “inhibition of PARP cleavage” value ([1]; 5 μM, antiFas-treated Jurkat cells (data not shown)) is reported as “effective inhibitor” and the “cytoprotection against TNF-α-induced cell death” value (HeLa cells) is reported as “loses much of its cytoprotective properties”.
